Results: patent EP3820845B1, “NOVEL, NEW GENERATION INHIBITOR COMPOUNDS SPECIFIC TO GST P1 ENZYME” (HACETTEPE ÜNIVERSITESI, priority 2018, dated 2020)
Read-outs that look alike come from different tables or passages of the source.

Assays:
human-GST P1 (hGST P1) = human-GST P1 (hGST P1) (Homo sapiens, UniProt P09211); assay: Spectrophotometric GST P1 enzyme inhibition test (GSH/CDNB conjugation), IC50 determination; format: biochemical; settings: spectrophotometric enzyme activity, ctapm1 concentrations between 0-100 µM; GraphPrism calculation; Figure 1
Experimental: Pure human-GST P1 (hGST P1) enzyme has been used as target protein in enzyme inhibition tests. "Ethacrynic acid" has been used as the model inhibitor compound. Ctapm1 (compound 1) compound which is a tetrahydrocarbazole derivative has been used as the basic precursor inhibitor for compounds that are designed, synthesized and are planned to be synthesized with advanced modifications.
The enzyme activity was determined over the activity of GST P1 enzyme which conjugated GSH and 1-chloro-2,4-dinitrobenzene (CDNB). The test medium was prepared to include 100 mM sodium phosphate buffer (pH 6.5) comprising 1 mM EDTA, 1 mM GSH, 1 mM CDNB and 5% ethanol and the temperature of the medium was determined as 30°C. The formation of a conjugate (GS-DNB) was monitored for 1 minute over the absorbance increase at 340 nm wavelength. The specific activity was calculated using 0.0096 µM^-1 cm ^-1 absorption coefficient. […] [formula] ΔA: Absorbance change (A340/minute.ml) Vr: Reaction volume (ml) d: Dilution factor ε: Molar absorption coefficient (9,6 mM^-1, cm^-1) ℓ: Light path (0,524 cm for 1 cm microplate measurements for Standard spectrophotometry vessel, Ve: Volume added to the stock enzyme reaction medium (ml) […]
In order to determine IC50 values of compounds both the standard spectrophotometric method and the microplate kinetic reading method was used together. […]

GST P1 = GST P1 (Homo sapiens, UniProt P09211); assay: Enzyme kinetic analysis with GST P1 (GSH- and CDNB-dependent Michaelis-Menten / Lineweaver-Burk), Ki inhibition constants; format: biochemical; settings: Figure 2
Experimental: Figure 1. IC50 dose(Log)-inhibition graph of the spectrophotometric enzyme activity of GST P1 at concentrations of the ctapm1 compound between 0-100 µM. Figure 2. kinetic analysis results of ctapm1 compound with GST P1. A and C are the GSH and CDNB dependent Michaelis-Menten graphic of the ctapm1 compound and B and D are the GSH and CDNB dependent Lineweaver-Burk graphs of the ctapm1 compound. Figure 3. The schematic view of the THC fragment, its load distribution and elemental features. 2-dimension schematic view (a) of "2,3,4,9-tetrahydro-1H-carbazole"in (shortly tetra hydro or THC) and the load distribution (b) of the THC fragment. […]
The enzyme activity was determined over the activity of GST P1 enzyme which conjugated GSH and 1-chloro-2,4-dinitrobenzene (CDNB). The test medium was prepared to include 100 mM sodium phosphate buffer (pH 6.5) comprising 1 mM EDTA, 1 mM GSH, 1 mM CDNB and 5% ethanol and the temperature of the medium was determined as 30°C. The formation of a conjugate (GS-DNB) was monitored for 1 minute over the absorbance increase at 340 nm wavelength. The specific activity was calculated using 0.0096 µM^-1 cm ^-1 absorption coefficient. […]

GST P1, sequence (P09211 2-210 limits assumed): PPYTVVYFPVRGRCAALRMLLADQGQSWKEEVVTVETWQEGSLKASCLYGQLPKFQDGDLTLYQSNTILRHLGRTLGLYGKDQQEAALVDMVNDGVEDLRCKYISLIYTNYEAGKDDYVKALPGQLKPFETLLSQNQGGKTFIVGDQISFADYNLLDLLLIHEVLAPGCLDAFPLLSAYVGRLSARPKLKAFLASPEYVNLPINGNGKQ
human-GST P1 (hGST P1), sequence (P09211 2-210 limits assumed): as above

S=c1[nH]nc(C2CCc3[nH]c4ccccc4c3C2)[nH]1 (stereo not drawn) [Compound 1, 3-(2,3,4,9-tetrahydro-1H-carbazole-3-yl)-1H-1,2,4-triazole-5(4H)-thione]
IC50 (human-GST P1 (hGST P1)): 1070 nM | Ki (GST P1; competitive type, read-out: Ki inhibition constant against CDNB): 1700 nM | Ki (GST P1; non-competitive type, read-out: Ki inhibition constant against GSH): 1740 nM
